Test results published in patent US9227956B2 (Pfizer Inc., priority 2013, dated 2016).

Assays:
[1] = system: PCSK9; experiment: PCSK9 lowering in sandwich culture human hepatocytes (SCHH); format: cell-based; conditions: maximum response versus vehicle
Protocol: Test compound in-vitro pharmacokinetic and pharmacodynamic relationships were measured in sandwich culture primary cryopreserved human hepatocytes. Within these studies SCHH cells (BD Biosciences IVT) were thawed at 37° C. then placed on ice, after which the cells were added to pre-warmed (37° C.) In VitroGRO-HT media and centrifuged at 50×g for 3 min. The cell pellet was re-suspended to 0.8×10^6 cells/mL in InVitroGRO-CP plating medium and cell viability determined by trypan blue exclusion. On day 1, hepatocyte suspensions were plated in BioCoat 96-well plates at a density of 80000 cells/well in a volume of 0.1 mL/well. After 18 to 24 hours of incubation at 37° C. in 5% CO2, cells were overlaid with ice-cold 0.25 mg/mL BD Matrigel Matrix Phenol Red-Free in incubation medium at 0.1 mL/well. Cultures were maintained at 37° C. in 5% CO2 in InVitroGRO-HI (FBS-free media), which was replaced every 24 hours and time course treatments were initiated on day 5. Prior to compound treatment cell plates were washed 3 times with 0.1 mL/well InVitroGRO-HI and 0.09 mL of media was added back in preparation for the compound additions. 1 uL of either DMSO or compound DMSO stocks at 30 mM, 10 mM, 3 mM and 1 mM were stamped into 96 well V bottom polypropylene plates. 0.099 mL of media was added to the compound plate and mixed thoroughly before the addition of 0.010 mL from the interim compound plate to the cell plate. […] At the indicated time, 0.08 mL of media was removed from the cell plates and frozen for subsequent analysis of secreted PCSK9 by AlphaLISA and for determination of drug levels in the media by liquid chromatography-tandem mass spectrometry (LC-MS/MS). The remaining media was then aspirated and the cell layers were washed 3× with ice cold Hanks Balanced Salt Solution (HBSS) under shaking conditions to remove the matrigel overlay and plates were then stored at −20° C. for subsequent determination of drug levels in the cells by LC-MS/MS. AlphaLISA determination of PCSK9 protein levels within the conditioned media was performed ultilizing the identical reagents and detection protocols described above for the WT7 cells.

[2] = system: human PCSK9; experiment: PCSK9 AlphaLISA assay, PCSK9 lowering in WT7 cells; conditions: WT7 cells (Huh7 stably over-expressing human PCSK9); secreted PCSK9 by AlphaLISA; overnight incubation (16-24 h); top concentration 20 μM; read-out: Cell Based PCSK9 IC50
Source text: An in-vitro AlphaLISA assay (Perkin Elmer) was developed in order to quantitate the level of PCSK9 secreted into the cell culture media following compound treatment. To detect and measure PCSK9 protein an in-house generated anti-PCSK9 antibody was coupled to AlphaLISA acceptor beads by an external vendor (PerkinElmer) and a second internally developed anti-PCSK9 antibody with an epiptope distinct from that of the acceptor beads was biotinylated in house. Streptavidin coated-donor beads (Perkin Elmer) are also included in the assay mixture which then binds the biotinylated anti-PCSK9 antibody and in the presence of PCSK9 this donor complex and acceptor beads are brought into close proximity. […] The ability of compound to modulate PCSK9 protein levels in conditioned media by AlphaLISA was assessed in the human hepatocellular carcinoma cell line Huh7, stably over-expressing human PCSK9. […] Following plasmid transfection the stable WT7 clone was identified and maintained under Zeocin selection. Compound screening was performed in 384-well plates where WT7 cells were plated at a density of 7500 cells per well in 20 μL of tissue culture media containing compound in an eleven point, 0.5 log dilution format at a high treatment concentration of 20 μM in a final volume of 0.5% DMSO. In additional to these test compound conditions each screening plate also included wells that contained 20 μM puromycin as a positive assay control defined as high percent effect, HPE, as well as wells containing media in 0.5% DMSO as a negative treatment control defined as zero percent effect, ZPE. After overnight compound incubation (16-24 h) the tissue culture media was collected and an aliquot from each sample was transferred to individual wells of a 384-well white Optiplate (Perkin Elmer). The coupled antibodies and donor beads were added to the assay plates in a buffer composed of 30 mM Tris pH 7.4, 0.02% Tween-20 and 0.02% Casein. Anti-PCSK9 acceptor beads (final concentration of 10 μg/mL) and anti-PCSK9 biotinylated antibody (final concentration of 3 nM) were added and incubated for 30 minutes at room temperature followed by the addition of the streptavidin donor beads (final concentration 40 μg/mL) for an additional 60 minutes. Additionally a standard curve was generated where AlphaLISA reagents were incubated in wells spiked with recombinant human PCSK9 diluted in tissue culture media from 5000 ng/mL to 0.6 ng/mL. […] The test compound data were converted into percent effect, using the ZPE and HPE controls as 0% and 100% activity, respectively. The equation used for converting each well reading into percent effect was:
[formula] IC50 was then calculated and reported as the midpoint in the percent effect curve in molar units and the values are reported under the Cell Based PCSK9 IC50 (μM) column header within Table 1 Biological Data. Additionally, to monitor the selectivity of compound response for PCSK9 the level of a second secreted protein, Transferrin, was measured from the same conditioned media treated with test compound by AlphaLISA. […] To detect and quantify effects on Transferrin 0.01 mL of the culture media was transferred to a 384-well white Optiplate and 0.01 mL of media was added to bring the volume to 0.02 ml. Anti-Transferrin acceptor beads were added to a final concentration of 10 μg/mL, biotinylated anti-Transferrin at 3 nM and streptavidin donor beads at 40 μg/mL. Percent effect and IC50 for Transferrin was computed in a similar manner as that described for PCSK9.

[3] = system: human PCSK9; experiment: Cell Free PCSK9 Assay (PCSK9-luciferase RNA translated in HeLa cell lysate); format: biochemical; conditions: 30° C. for 45 minutes, luciferase readout, top concentration 100 μM
Protocol: In order to eliminate the permeability barrier inherent to the WT7 and SCHH cell-based assays a cell-free system was also established to access compound activity. […] The construct was then in-vitro transcribed using the MEGAscript T7 Kit (Life Technologies) and RNA subsequently purified incorporating the MEGAclear Kit (Life Technologies) according to manufacturer's protocols. […] Growth was in a 50 L wavebag at a rocker speed of 25 rpm and angle 6.1 with 5% CO2 and 0.2 LPM flow rate with cells harvested at a density of 2-2.5e6/ml. Lysates additionally contained 1 tablet of Roche cOmplete-EDTA protease inhibitors per 50 ml with tris(2-carboxyethyl)phosphine (Biovectra) substituted for dithiothreitol, and were clarified by an additional final centrifugation at 10,000 rpm in a Sorvall SS34 rotor at 4° C. for 10 minutes. Compound screening was performed in 384-well plates in an eleven point, 0.5 log dilution format at a top test compound concentration of 100 μM in a final volume of 0.5% DMSO. […] Upon assay completion 1 μL from each reaction solution was removed and transferred to a second 384-well Optiplate (Perkin Elmer) containing 24 μL of SteadyGlo (Promega) and signal intensity was measured on the Envision (Perkin Elmer) using the enhanced luminescence protocol. […] The test compound data were converted into percent effect, using the ZPE and HPE controls as 0% and 100% activity, respectively, applying Equation 1 above. IC50 was then calculated and reported as the midpoint in the percent effect curve in molar units and the values are reported under the Cell Free PCSK9 IC50 (μM) column header within Table 1 Biological Data.

Row | Compound | Sandwich Culture Hepatocyte (SCHH) PCSK9 Lowering ([1]; at 8 h at 30 μM) | IC50 [2] [µM] | IC50 [3] [µM] | Sandwich Culture Hepatocyte (SCHH) PCSK9 Lowering ([1]; at 6 h at 30 uM) [% at 6 h at 30 uM]
1 | CCOC(=O)O[C@@H](C)n1nnc(-c2c(-c3ccc(C(=O)N(c4ncccc4C)[C@@H]4CCCNC4)cc3)cnn2C)n1 [Example 30, ethyl (1S)-1-{5-[1-methyl-4-(4-{(3-methylpyridin-2-yl)[(3R)-piperidin-3-yl]carbamoyl}phenyl)-1H-pyrazol-5-yl]-2H-tetrazol-2-yl}ethyl carbonate] | 11% at 8 h at 30 uM | > 16.7 | – | –
2 | CCOC(=O)OC(C)OC(=O)c1c(-c2ccc(C(=O)N(c3nccc4ccn(C)c34)[C@@H]3CCCNC3)cc2)cnn1C (stereo partly drawn) [Example 14, 1-[(ethoxycarbonyl)oxy]ethyl 1-methyl-4-(4-{(1-methyl-1H-pyrrolo[2,3-c]pyridin-7-yl)[(3R)-piperidin-3-yl]carbamoyl}phenyl)-1H-pyrazole-5-carboxylate] | 54% at 8 h at 30 μM | 4.5 | – | –
3 | CCOC(=O)OC(C)OC(=O)c1c(-c2ccc(C(=O)N(c3nccc4ccccc34)[C@@H]3CCCNC3)cc2)cnn1C (stereo partly drawn) [Example 11, 1-[(ethoxycarbonyl)oxy]ethyl 4-(4-{isoquinolin-1-yl[(3R)-piperidin-3-yl]carbamoyl}phenyl)-1-methyl-1H-pyrazole-5-carboxylate] | – | – | 2.1 | –
4 | CCOC(=O)O[C@H](C)n1nnc(-c2c(-c3ccc(C(=O)N(c4ncccc4C)[C@@H]4CCCNC4)cc3)cnn2C)n1 [Example 31, ethyl (1R)-1-{5-[1-methyl-4-(4-{(3-methylpyridin-2-yl)[(3R)-piperidin-3-yl]carbamoyl}phenyl)-1H-pyrazol-5-yl]-2H-tetrazol-2-yl}ethyl carbonate] | 19% at 8 h at 30 uM | > 20 | – | –
5 | Cn1ncc(-c2ccc(C(=O)N(c3nccc4ccccc34)[C@@H]3CCCNC3)cc2)c1C(=O)O [Example 4, 4-(4-{isoquinolin-1-yl[(3R)-piperidin-3-yl]carbamoyl}phenyl)-1-methyl-1H-pyrazole-5-carboxylic acid] | – | > 20 | 3.8 | –
6 | CCOC(=O)OC(C)n1nnnc1-c1c(-c2ccc(C(=O)N(c3ncccc3C)[C@@H]3CCCNC3)cc2)cnn1C (some centres unmarked) [Example 21] | – | > 20 | – | 57
7 | CCC(=O)OC(CC)n1nnc(-c2c(-c3ccc(C(=O)N(c4ncccc4C)[C@@H]4CCCNC4)cc3)cnn2C)n1 (single isomer, unassigned) [Example 47] | – | > 20 | – | 12

The remaining lines, values ahead:

Row | Sandwich Culture Hepatocyte (SCHH) PCSK9 Lowering ([1]; at 8 h at 30 μM) | IC50 [2] [µM] | IC50 [3] [µM] | Sandwich Culture Hepatocyte (SCHH) PCSK9 Lowering ([1]; at 6 h at 30 uM) [% at 6 h at 30 uM] | Compound
8 | – | 1.7 | 0.69 | – | O=C(c1ccc(-c2cnn3cccnc23)cc1)N(c1ncccc1Cl)[C@@H]1CCCNC1 [Example 2, N-(3-chloropyridin-2-yl)-N-[(3R)-piperidin-3-yl]-4-(pyrazolo[1,5-a]pyrimidin-3-yl)benzamide]
9 | – | > 20 | 16.8 | – | Cc1cccnc1N(C(=O)c1ccc(-c2cnn(C)c2C(=O)NS(C)(=O)=O)cc1)[C@@H]1CCCNC1 [Example 28, 1-methyl-4-(4-{(3-methylpyridin-2-yl)[(3R)-piperidin-3-yl]carbamoyl}phenyl)-N-(methylsulfonyl)-1H-pyrazole-5-carboxamide]
10 | – | > 20 | 25.3 | – | Cn1ncc(-c2ccc(C(=O)N(c3ncccc3Cl)[C@@H]3CCCNC3)cc2)c1C(=O)Nc1nnn[nH]1 [Example 24, 4-(4-{(3-chloropyridin-2-yl)[(3R)-piperidin-3-yl]carbamoyl}phenyl)-1-methyl-N-(1H-tetrazol-5-yl)-1H-pyrazole-5-carboxamide]
11 | – | > 20 | 14.3 | – | Cn1ncc(-c2ccc(C(=O)N(c3ncccc3Cl)[C@@H]3CCCNC3)cc2)c1C(=O)NS(C)(=O)=O [Example 27, 4-(4-{(3-chloropyridin-2-yl)[(3R)-piperidin-3-yl]carbamoyl}phenyl)-1-methyl-N-(methylsulfonyl)-1H-pyrazole-5-carboxamide]
12 | – | > 20 | – | 72 | CCOC(=O)OC(C)N(C(=O)c1c(-c2ccc(C(=O)N(c3ncccc3C)[C@@H]3CCCNC3)cc2)cnn1C)S(C)(=O)=O (stereo partly drawn) [Example 29, ethyl 1-[{[1-methyl-4-(4-{(3-methylpyridin-2-yl)[(3R)-piperidin-3-yl]carbamoyl}phenyl)-1H-pyrazol-5-yl]carbonyl}methylsulfonyl)amino]ethyl carbonate]
13 | – | > 20 | 5.75 | – | Cn1ncc(-c2ccc(C(=O)N(c3ncccc3Cl)[C@@H]3CCCNC3)cc2)c1-c1nn[nH]n1 [Example 26, N-(3-chloropyridin-2-yl)-4-[1-methyl-5-(2H-tetrazol-5-yl)-1H-pyrazol-4-yl]-N-[(3R)-piperidin-3-yl]benzamide]
14 | – | > 20 | 5.8 | – | Cn1ncc(-c2ccc(C(=O)N(c3ncccc3Cl)[C@@H]3CCCNC3)cc2)c1C(=O)NS(=O)(=O)C(F)(F)F [Example 22, 4-(4-{(3-chloropyridin-2-yl)[(3R)-piperidin-3-yl]carbamoyl}phenyl)-1-methyl-N-[(trifluoromethyl)sulfonyl]-1H-pyrazole-5-carboxamide]
15 | – | > 20 | 2.97 | – | Cn1ncc(-c2ccc(C(=O)N(c3ncccc3Cl)[C@@H]3CCCNC3)cc2)c1C(=O)NO [Example 25, 4-(4-{(3-chloropyridin-2-yl)[(3R)-piperidin-3-yl]carbamoyl}phenyl)-N-hydroxy-1-methyl-1H-pyrazole-5-carboxamide]
